Laboratory results from US20200255411A1, “ISOINDOLINE DERIVATIVES” (VIIV HEALTHCARE UK LIMITED, priority 2015, published 2020).

Tested on: HIV in the HTLV-1 transformed cell line MT-4
Test: MT4 assay (antiviral HIV activity)
Assay type: cell-based
Conditions: MT-4 cells, readout at 96 hours with cell titer glo, 10 point dose response
Method: Antiviral HIV activity and cytotoxicity values for compounds of the invention from Table 1 were measured in parallel in the HTLV-1 transformed cell line MT-4 based on the method previously described (Hazen et al., 2007, In vitro antiviral activity of the novel, tyrosyl-based human immunodeficiency virus (HIV) type 1 protease inhibitor brecanavir (GW640385) in combination with other antiretrovirals and against a panel of protease inhibitor-resistant HIV (Hazen et al., “In vitro antiviral activity of the novel, tyrosyl-based human immunodeficiency virus (HIV) type 1 protease inhibitor brecanavir (GW640385) in combination with other antiretrovirals and against a panel of protease inhibitor-resistant HIV”, Antimicrob. Agents Chemother. 2007, 51: 3147-3154; and Pauwels et al., “Sensitive and rapid assay on MT-4 cells for the detection of antiviral compounds against the AIDS virus”, J. of Virological Methods 1987, 16: 171-185).
Luciferase activity was measured 96 hours later by adding a cell titer glo (Promega, Madison, Wis.). Percent inhibition of cell protection data was plotted relative to no compound control. Under the same condition, cytotoxicity of the compounds was determined using cell titer Glo™ (Promega, Madison, Wis.). IC50s were determined from a 10 point dose response curve using 3-4-fold serial dilution for each compound, which spans a concentration range >1000 fold. […]

Compound Cc1c(-c2c(C)c3c(c(C)c2[C@H](OC(C)(C)C)C(=O)O)CN(C(=O)c2cccc(F)c2)[C@@H]3C)cc(F)c2c1CCCO2 (atropisomer, axis not shown; (M)) [Example 1] has an IC50 of 1.7 nM.
